Assay results taken from patent US12396961B2, “Compounds and compositions for intracellular delivery of agents” (ModernaTX, Inc., priority 2015, dated 2025).
Like-named read-outs stand apart in the source and are kept apart here. Values belong to the molecule of their own block, whether it stands above or below them.

What was measured:
[1] = test system: luciferase (Luc) mRNA expression; test: Luc expression (AUC) in CD-1 mice relative to MC3; format: in vivo; settings: for Liver/Spleen Ratio / Lipid/MC3 AUC: Table 7c; for Lipid/MC3 AUC: AUC relative to MC3; for Lipid/MC3 Luc CD-1 (mice): Luc expression relative to MC3, CD-1 mice
Method in brief: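 CD-1 mice dosed at 0.5 mpk with nanoparticle compositions carrying luciferase mRNA; total light flux acquired by whole-body luminescent imaging 6 h after administration. Expression referenced to MC3-containing composition.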

[2] = Lipid clearance: % dose remaining in mice (liver) 6 h and 24 h after administration of nanoparticle compositions; format: in vivo, CD-1 mice; settings: Table 7c, species not given
[3] = test system: luciferase (Luc) mRNA expression; test: Expression of Luc in different organs (liver, lung, spleen, femur) 6 hours after intravenous administration; format: in vivo; settings: mice i.v. 0.5 mpk
Procedure: The efficacy of the nanoparticle compositions presented in Tables 1, la, 17-1, 19-1, 20-1 and 21-1 was further evaluated by measuring the expression of modified luciferase in the liver, lung, spleen, and femur upon administration of a given composition. Formulations were administered intravenously to mice (n=3) at a dosage of 0.5 mpk and bioluminescence measured after 6 hours. The standard MC3 formulation and a PBS control were also tested.

hEPO mRNA expression [4] = test: Expression of hEPO after intravenous administration to rats; format: in vivo; settings: for hEPO (pg/mL) 3 hours / hEPO (pg/mL) 6 hours / hEPO (pg/mL) 24 hours: Table 6, rats i.v. 0.2 or 0.5 mg/kg
Procedure: PBS (phosphate buffered saline) is used as control.
Formulations were prepared according to Table 5 and included mRNA encoding hEPO.
[…] After the 48 hour time point, livers and spleens were harvested and frozen.

[5] = test system: LDLr mRNA / Luc expression; test: Expression (AUC) in LDLr−/− mice relative to KL22; format: in vivo; settings: Table 7b
rats = test: Tolerability / toxicity in rats dosed i.v. with hEPO mRNA LNP; format: in vivo; settings: 2 mg/kg dose
hEPO mRNA expression [6] = test: Expression of hEPO in mice (CD-1); format: in vivo, CD-1 mice; settings: hEPO expression relative to MC3, CD-1 mice
Description: FIG. 12 is a set of graphs illustrating hEPO expression levels in CD-1 mice dosed with compounds of the disclosure, compared to MC3. PBS is used as control. […] In graphs A-C numbers 1-14 refer to compositions containing the following: 1: Compound 73, 2: Compound 80, 3: Compound 70; 4: Compound 81; 5: Compound 69; 6: Compound 82; 7: Compound 83; 8: Compound 62; 9: Compound 84; 10: Compound 85; 11: Compound 86; 12: Compound 87; 13: MC3; 14: PBS.
FIG. 13 is a graph showing hEPO levels (pg/mL) in CD-1 mice up to −25 h after administration of a nanoparticle composition containing compounds of the disclosure, compared to a composition containing MC3. Numbers 1-13 refer to compositions containing the following: 1: Compound 73, 2: Compound 80, 3: Compound 70; 4: Compound 81; 5: Compound 69; 6: Compound 82; 7: Compound 83; 8: Compound 62; 9: Compound 84; 10: Compound 85; 11: Compound 86; 12: Compound 87; 13: MC3. […]

[7] = Lipid levels (clearance) in liver and spleen 48 hours after administration; format: in vivo, rats; settings: for concentration at 48 h: Sprague-Dawley, rat, intravenous
Procedure: Formulations were administered intravenously to rats (n=3 or 6) at a dosage of 0.2 mg/kg or 0.5 mg/kg (mpk) and hEPO levels measured at 3, 6, and 24 hour time points. After the 48 hour time point, livers and spleens were harvested and frozen.
The amount of lipid in the liver and spleen 48 hours after administration of a nanoparticle composition was also measured. […] In contrast, approximately 60% of doses including MC3 or Compound 22 remained in the liver after 48 hours. Less than 3% of the dose remained in the spleen for each composition tested.

[8] = Particle size and polydispersity index (Zetasizer Nano ZS); format: physicochemical; settings: Table 1; DOPE 40:20:38.5:1.5, Luc mRNA
Method in brief: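 Particle size and polydispersity index were measured by dynamic light scattering on a Zetasizer Nano ZS in 1×PBS. Zeta potential was measured in 15 mM PBS.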

[9] = test system: luciferase (Luc) mRNA expression; test: Expression of Luc, bioluminescence (total flux) after intravenous administration to mice; format: in vivo; settings: mice; in words
Procedure: In order to monitor how effectively various nanoparticle compositions deliver therapeutic and/or prophylactic agents to targeted cells, different nanoparticle compositions including a particular therapeutic and/or prophylactic agent (for example, a modified or naturally occurring RNA such as an mRNA) are prepared and administered to rodent populations. Mice are intravenously, intramuscularly, intraarterially, or intratumorally administered a single dose including a nanoparticle composition with a formulation such as those provided in Table 1. In some instances, mice may be made to inhale doses. Dose sizes may range from 0.001 mg/kg to 10 mg/kg, where 10 mg/kg describes a dose including 10 mg of a therapeutic and/or prophylactic agent in a nanoparticle composition for each 1 kg of body mass of the mouse. A control composition including PBS may also be employed.
Upon administration of nanoparticle compositions to mice, dose delivery profiles, dose responses, and toxicity of particular formulations and doses thereof can be measured by enzyme-linked immunosorbent assays (ELISA), bioluminescent imaging, or other methods. For nanoparticle compositions including mRNA, time courses of protein expression can also be evaluated. Samples collected from the rodents for evaluation may include blood, sera, and tissue (for example, muscle tissue from the site of an intramuscular injection and internal tissue); sample collection may involve sacrifice of the animals.
The efficacy of the nanoparticle compositions presented in Tables 1, la, 17-1, 19-1, 20-1 and 21-1 was evaluated with a bioluminescence study. Formulations were administered intravenously to mice (n=6) at a dosage of 0.5 mg/kg (mpk) and bioluminescence measured at 3, 6, and 24 hour time points. The standard MC3 formulation and a PBS control were evaluated for comparison.

SMILES: CCCCC/C=C\C/C=C\CCCCCCCCC1(CCCCCCCC/C=C\C/C=C\CCCCC)CC(OC(=O)CCCN(C)C)C1 [Compound 21-2, 3,3-Di((9Z,12Z)-octadeca-9,12-dien-1-yl)cyclobutyl 4-(dimethylamino)butanoate]
Total flux in organs, comparison in words over the organs of the table named [3]: lowest expression in each organ

SMILES: CCCCCCCCCCCCN(CCCCCCCCCCCC)CCN(CCCCCCCCCCCC)CCN1CCN(CCN(CCCCCCCCCCCC)CCCCCCCCCCCC)CC1 [KL22, N1-[2-(didodecylamino)ethyl]-N1,N4,N4-tridodecyl-1,4-piperazinediethanamine, reference compound]
hEPO expression in rats (FIG. 8) (hEPO mRNA expression [4]; rats, 2 mpk, i.v. (Graph A), in words): do not express hEPO in rats
Lipid/KL22 AUC LDLr−/− mice 0.5 mpk, LDLr [5]: 1
Tolerability / toxicity in rats (FIG. 8) (rats): toxic

SMILES: CCCCCCCCCCCCN(CCCCCCCCCCCC)CCN(CCCCCCCCCCCC)CCN1CCN(CCN(CCCCCCCCC)CCCCCCCCC)CC1 [23 (DOPE)]
Lipid/MC3 hEPO S.D. (rats) (hEPO mRNA expression [4]; hEPO expression relative to MC3, S.D. rats, intravenous): 0.21
Lipid/MC3 hEPO CD-1 (mice) (hEPO mRNA expression [6]): 2.4
concentration at 48 h ([7]; liver, 48 hours after administration, read-out: Lipid in liver): 32900 ng/g
concentration at 48 h ([7]; spleen, 48 hours after administration, read-out: Lipid in spleen): 26100 ng/g
% remaining dose in liver ([7]; liver, 48 hours after administration): 51.4%
% remaining dose in spleen ([7]; spleen, 48 hours after administration): 2.72%

SMILES: CCCCCCCCCN(CCCCCCCCC)CCC1CCN(C(=O)CN(CCCCCCCCC)CCN(CCCCCCCCC)CCCCCCCCC)CC1 [Compound 49, 2-((2-(Dinonylamino)ethyl)(nonyl)amino)-1-(4-(2-(dinonylamino)ethyl)piperidin-1-yl)ethan-1-one]
PDI [8]: 0.200
Lipid/MC3 Luc CD-1 (mice) [1]: 5.23
% dose remaining Rat liver (48 h) [7]: 38.45%

SMILES: CCCCC/C=C\C/C=C\CCCCCCCCC1(CCCCCCCC/C=C\C/C=C\CCCCC)CCC(OC(=O)CCCN(C)C)C1 (stereo not drawn) [Compound 21-4, 3,3-Di((9Z,12Z)-octadeca-9,12-dien-1-yl)cyclopentyl 4-(dimethylamino)butanoate]
Total flux in organs, comparison in words over the organs of the table named [3]: lowest expression in each organ

SMILES: CCCCCCCCCCCCCCN(CCCCCCCCCCCCCC)CCN1CCN(CCN(CCCCCCCCC)CCN(CCCCCCCCC)CCCCCCCCC)CC1 [Compound 20, N^1-(2-(4-(2-(Ditetradecylamino)ethyl)piperazin-1-yl)ethyl)-N^1,N^2,N^2-trinonylethane-1,2-diamine]
PDI [8]: 0.150
Total flux in organs, comparison in words over the organs of the table named [3]: highest total flux
Lipid/MC3 Luc CD-1 (mice) [1]: 5.0

SMILES: CCCCCCCCCN(CCCCCCCCC)CCN(CCCCCCCCC)CC(=O)N1CCN(C(=O)CN(CCCCCCCCC)CCCC(=O)OCCCCC)CC1 [Compound 45, Pentyl 4-((2-(4-(N-(2-(dinonylamino)ethyl)-N-nonylglycyl)piperazin-1-yl)-2-oxoethyl)(nonyl)amino)butanoate]
PDI [8]: 0.200
Lipid/MC3 Luc CD-1 (mice) [1]: 6.50
% dose remaining Rat liver (48 h) [7]: 8.57%

SMILES: CCCCCCCCCCCCN(CCCCCCCCCCCC)CCN(CCCCCCCCCCCC)CCN1CCN(CCN(CCCCCCCCC)CCCCCCCCC)CC1 [Compound 23, N^1-(2-(4-(2-(Dinonylamino)ethyl)piperazin-1-yl)ethyl)-N^1,N^2,N^2 tridodecylethane-1,2-diamine]
PDI [8]: 0.058
Luc expression in mice compared with MC3 (Table 7a) [9]: several fold higher
hEPO (pg/mL) 3 hours (hEPO mRNA expression [4]; DOPE formulation of Table 5): 249213 pg/mL
hEPO (pg/mL) 6 hours (hEPO mRNA expression [4]; DOPE formulation of Table 5): 275440 pg/mL
hEPO (pg/mL) 24 hours (hEPO mRNA expression [4]; DOPE formulation of Table 5): 120104 pg/mL
hEPO (pg/mL) 3 hours (hEPO mRNA expression [4]; DSPC formulation of Table 5): 86627 pg/mL
hEPO (pg/mL) 6 hours (hEPO mRNA expression [4]; DSPC formulation of Table 5): 71360 pg/mL
hEPO (pg/mL) 24 hours (hEPO mRNA expression [4]; DSPC formulation of Table 5): 29008 pg/mL
Tolerability / toxicity in rats (FIG. 8) (rats): toxic

Continued, in another order:

% Dose Remaining 6 hr ([2]; 6 hr): 0.88%
% Dose Remaining 24 hr [2]: 0.24%
SMILES: CCCCCCCCCN(CCCCCCCC(=O)OC)CCC1CCN(C(=O)CN(CCCCCCCCC)CCN(CCCCCCCCC)CCCCCCCCC)CC1 [Compound 57, Methyl 8-((2-(1-(N-(2-(dinonylamino)ethyl)-N-nonylglycyl)piperidin-4-yl)ethyl)(nonyl)amino)octanoate]
Liver/Spleen Ratio [1]: 15
Lipid/MC3 AUC [1]: 0.85

% Dose Remaining 24 hr [2]: 1.60%
SMILES: CCCCCCCCCN(CCCCCCCCC)CCN(CCCCCCCCC)CC(=O)N1CCN(C(=O)CN(CCCCCCCCC)CCCCC(=O)OCCCC)CC1 [Compound 55, Butyl 5-((2-(4-(N-(2-(dinonylamino)ethyl)-N-nonylglycyl)piperazin-1-yl)-2-oxoethyl)(nonyl)amino)pentanoate]
Liver/Spleen Ratio [1]: 9
Lipid/MC3 AUC [1]: 0.14

% Dose Remaining 24 hr [2]: 0.16%
SMILES: CCCCCCCCCN(CCCCCCCCC)CCN(CCCCCCCCC)CC(=O)N1CCN(C(=O)CN(CCCCCCCCC)CCCOC(=O)CCCCC)CC1 [Compound 56, 3-((2-(4-(N-(2-(Dinonylamino)ethyl)-N-nonylglycyl)piperazin-1-yl)-2-oxoethyl)(nonyl)amino)propyl Hexanoate]
Liver/Spleen Ratio [1]: 29
Lipid/MC3 AUC [1]: 1.25

% Dose Remaining 24 hr [2]: 0.61%
SMILES: CCCCCCCCCN(CCCCCCC(=O)OCC)CCC1CCN(C(=O)CN(CCCCCCCCC)CCN(CCCCCCCCC)CCCCCCCCC)CC1 [Compound 58, Ethyl 7-((2-(1-(N-(2-(dinonylamino)ethyl)-N-nonylglycyl)piperidin-4-yl)ethyl)(nonyl)amino)heptanoate]
Liver/Spleen Ratio [1]: 11
Lipid/MC3 AUC [1]: 0.97

% Dose Remaining 24 hr [2]: 6.40%
SMILES: CCCCCCCCCN(CCCCCCCCC)CCN(CCCCCCCCC)CC(=O)N1CCN(C(=O)CN(CCCC(=O)OCCCCC)CCCC(=O)OCCCCC)CC1 [Compound 72, Dipentyl 4,4′-((2-(4-(N-(2-(dinonylamino)ethyl)-N-nonylglycyl)piperazin-1-yl)-2-oxoethyl)azanediyl)dibutyrate]
Liver/Spleen Ratio [1]: 6
Lipid/MC3 AUC [1]: 0.46

% Dose Remaining 24 hr [2]: 0.77%
SMILES: CCCCCCCCCN(CCCCCCCCC)CCN(CCCCCCCCC)CC(=O)N1CCN(C(=O)CN(CCCCCCCCC)CCCCCCC(=O)OCC)CC1 [Compound 53, Ethyl 7-((2-(4-(N-(2-(dinonylamino)ethyl)-N-nonylglycyl)piperazin-1-yl)-2-oxoethyl)(nonyl)amino)heptanoate]
Liver/Spleen Ratio [1]: 17
Lipid/MC3 AUC [1]: 0.07
